Test results from patent US20060287316A1, “METHOD FOR IMPROVING PHARMACOKINETICS OF PROTEASE INHIBITORS AND PROTEASE INHIBITOR PRECURSORS” (priority 2005, published 2006).
In brackets after ≈: the same amount, converted by molar mass. Read-outs that look alike come from different tables or passages of the source.

Tests used:
[1] = Cytotoxicity in the same cell culture system; type: cell-based; settings: human, MT4 cells
Procedure: Cytotoxicity of PL-100 and other P is was evaluated in the same cell culture system. The selectivity index (SI) is the ratio of cytotoxicity (CC50) to antiviral activity (EC50). The selective index is similar to the therapeutic index but relates to in vitro studies.

[2] = system: 63 HIV isolates with reduced susceptibility to all approved protease inhibitors; type: cell-based, HIV-1; settings: for % FC < 2.5 / % FC < 10 / % FC > 50 / Mean FC / Median FC: 63 diverse, multi-PI-resistant strains; for Mean FC / Median FC: FC in IC50 vs NL-4.3
From the text: The cross-resistance profile of PL-100 against 63 HIV isolates with reduced susceptibility to all approved protease inhibitors (P is) including atazanavir was thus tested.
The panel of 63 viral strains was selected based on the following rationale: 1) High-level loss of susceptibility to specific P is; 2) High-level loss of susceptibility to multiple P is; 3) Good representation of the primary mutations. This panel consists of resistant viruses from highly PI-experienced patients with high-level PI resistance.
The genotype of these viruses encompasses a wide variety of mutational patterns. We particularly looked for the following primary PI mutations: D30N, L33F/I, M461/L, G48V, I50L/V, V82A/F/S/T, I84V and L90M as defined by the International AIDS Society (IAS)-USA.
The dark cells indicate a […], the grey cells indicate FC values of 2.5≦FC<10 and the white cells indicate a FC value of; 0≦FC<2.5. The results of cross-resistance profile are further illustrated in the graph of FIG. 1.
In the cross-resistance profiling studies against the 63 resistant strains mentioned herein, EC95 of PL-100 was determined against each strain. The median EC95 represents the concentration required to inhibit 95% of the viral replication of 50% diverse drug-resistant HIV-1 variants tested. Table 8 illustrates the percentage of resistant strains tested with protein-binding adjusted EC95s≦200 ng/ml. The resistant strains are grouped by the number of primary mutations they have.
The EC95 of PL-100 was determined against each of the 63 resistant strains indicated herein. Table 9 illustrates the percentage of resistant strains tested with protein-binding adjusted EC95s≦630 ng/ml. The resistant strains are grouped by the number of primary mutations they have.

[3] = system: laboratory adapted HIV strain (NL4-3); assay: microbe, parasite or virus in culture; settings: for EC50: Human immunodeficiency virus 1, NL43, MT4, MT4 cells infected with NL4-3; for SI (CC50/EC50): ratio of cytotoxicity (CC50) to antiviral activity (EC50)
Procedure: Briefly, the antiviral activity of PL-100 was determined using MT4 cells infected with a laboratory adapted HIV strain (NL4-3). For comparison, seven approved protease inhibitors (PIs) were tested in parallel.
The effect of 40% human serum on the antiviral activity of PL-100 in MT4 cells infected with NL4-3 was therefore evaluated.

[4] = Partition coefficient (LogP), octanol / phosphate buffer; type: physicochemical; settings: octanol / phosphate buffer pH 7.4
From the text: The concentration of the compounds in the phases was detected by LC-MS.

[5] = Plasma concentration after single oral dose in rats (in vivo cleavage of the phosphate group); parameters: species or system male Sprague-Dawley rats; settings: 50 mg/Kg po, vehicle Mix, 3 rats
Procedure: To assess the extent of in vivo cleavage of the phosphate group from the putative compounds, PL-100, PL-462 (based on PL-100), PL-337 and PL-515 (based on PL-337) compounds were administered po (per os, (i.e., by mouth)) (50 mg/kg) to male Sprague-Dawley rats and their plasma concentration measured at different time intervals post-administration.
All test articles (PL-100, PL-462, PL-337 and PL-515) were prepared in different vehicle at the final concentration of 25 mg/mL. The vehicle composition is as follows: (1) 20% ethanol; 50% propylene glycol; 0.05% w/v Tween 20 and water (Mix); (2) PBS buffer (PBS).
Test articles were administered to male Sprague-Dawley rats at a single oral dose of 50 mg/kg. Each article was tested in three rats. Blood samples (0.2-0.3 mL) were collected at the post-dose time of 10, 20, 40, 60, 120, 180 and 360 minutes. The harvested blood was centrifuged to isolate plasma. The resulting plasma was separated and stored at −70° C.
Plasma samples together with standards and quality control samples were treated to precipitate proteins, then analyzed by HPLC-MS, for the presence of PL-462, PL-100, PL-515 and PL-337.

Water solubility = type: physicochemical
[6] = Pharmacokinetics of PL-100 and PL-461 in rats; type: in vivo, Sprague Dawley rats (Rattus norvegicus)
Procedure: Animal tested are Sprague Dawley rats (species Rattus norvegicus) of 6-7 weeks old at the start of dosing and were obtained from Charles River (Montreal, Canada). The study usually comprises about 6 animals per groups. […] The rats were fasted 3 h. before dosing and 3 h. after dosing. The formulations are prepared as indicated below. The solutions are stable at room temperature over a week and are covered with aluminum foil to avoid lights. […] The dosing volume for all formulations is 2 mL per kg body weight. Blood sample was collected at 15 min, 30 min, 45 min, 1 […] after the dosing. Blood samples were centrifuged to separate the plasma and separated plasma samples were placed into cryovials and frozen at -80° C. for further analysis. Plasma samples together with standards and quality control samples were treated by protein precipitation and then analyzed by HPLC-MS. […] The PK profile was obtained by administration of the test drugs; PL-100 and PL-461 in rats. […] The pharmacokinetic parameters of PL-100 and PL-461 in rats** was compared.

[7] = Study 4: ritonavir administered first, PL-461 15 or 30 minutes later; type: in vivo, Sprague Dawley rats; settings: test compound 15 or 30 minutes later, compared with the method of studies 1-3
[8] = sample O3-129578, 46I/82T/84V, panel ID 11
[9] = sample O4-148713, 46I/88S, panel ID 123
[10] = sample O4-148748, 37S/41K/70E, panel ID 115
[11] = sample O4-148749, 37T/41K/70E, panel ID 151

Cc1c(O)cccc1C(=O)N[C@@H](CSc1ccccc1)[C@H](O)CN1C[C@H]2CCCC[C@H]2C[C@H]1C(=O)NC(C)(C)C [Nelfinavir]
CC50 [1]: 8 µM | % FC < 2.5 [2]: 10% | % FC < 10 [2]: 27% | % FC > 50 [2]: 10% | Mean FC [2]: 31.7 | Median FC [2]: 15 | Fold change in IC50 vs. Reference [2, 8]: 1.6 | Fold change in IC50 vs. Reference [2, 9]: 4.6 | Fold change in IC50 vs. Reference [2, 10]: 1.6 | Fold change in IC50 vs. Reference [2, 11]: 1.9 | EC50 [3]: 0.029 µM | SI (CC50/EC50) [3]: 276

COC(=O)N[C@H](C(=O)NCCCC[C@@H](CO)N(CC(C)C)S(=O)(=O)c1ccc(N)c(F)c1)C(c1ccccc1)c1ccccc1 [PL-337, (1-{5-[(4-amino-3-fluoro-benzenesulfonyl)-isobutyl-amino]-6-hydroxy-hexylcarbamoyl}-2,2-diphenyl-ethyl)-carbamic acid methyl ester]
logP [4]: 3.8 | AUC [5]: 1.180 ± 0.196 μg/hr * ml | Cmax ([5]; male, Sprague-Dawley, rat, plasma): 681 ± 131 nM | Tmax ([5]; male, Sprague-Dawley, rat, plasma, read-out: Tmax (converted)): 1 h

COC(=O)N[C@H](C(=O)NCCCC[C@@H](COP(=O)(O)O)N(CC(C)C)S(=O)(=O)c1ccc(N)cc1)C(c1ccccc1)c1ccccc1 [PL-461, (1S,5S)-(1-{5-[(4-amino-benzenesulfonyl)-isobutyl-amino]-6-phosphonooxy-hexylcarbamoyl}-2,2-diphenyl-ethyl)-carbamic acid methyl ester]
Fold more water soluble than PL-100 (Water solubility): > 1800 fold | Water solubility (Water solubility; acidic conditions (FIG. 4)): moderate water solubility | Water solubility (Water solubility; pH>4.5 (FIG. 4)): increases dramatically | solubility (Water solubility; water, pH 7.5, aqueous buffer): 145 mg/mL (≈ 206 mM) | Fold improved oral bioavailability over PL-100 ([6]; female, Sprague Dawley, rat, in vivo, po): 2-3 fold | Plasma levels of the Lysine-based compound ([6]; rats, after oral dosing, compared to plasma levels of PL-100): insignificant or under detection limits | Increase of pharmacokinetics by sequential administration [7]: as efficient at increasing the pharmacokinetics

CC(C)(C)NC(=O)[C@@H]1C[C@@H]2CCCC[C@@H]2CN1C[C@@H](O)[C@H](Cc1ccccc1)NC(=O)[C@H](CC(N)=O)NC(=O)c1ccc2ccccc2n1 [Saquinavir]
CC50 [1]: 19 µM | % FC < 2.5 [2]: 27% | % FC < 10 [2]: 40% | % FC > 50 [2]: 37% | Mean FC [2]: 85 | Median FC [2]: 23.2 | Fold change in IC50 vs. Reference ([2]; sample O3-129573, 24I/33F/46I/54L/82A, panel ID 3): 1.5 | Fold change in IC50 vs. Reference [2, 8]: 1 | Fold change in IC50 vs. Reference ([2]; sample O3-129584, 33F/50V, panel ID 24): 1.7 | Fold change in IC50 vs. Reference ([2]; sample O3-148709 (non-B subtype), 32I/47A, panel ID 1): 0.2 | Fold change in IC50 vs. Reference ([2]; sample O4-148711, 46I/47A/84V, panel ID 119): 1.1 | Fold change in IC50 vs. Reference ([2]; sample O4-148712, 46I/88S, panel ID 122): 1.9 | Fold change in IC50 vs. Reference ([2]; sample O4-148712, 46I/88S, panel ID 124): 2 | Fold change in IC50 vs. Reference [2, 9]: 0.6 | Fold change in IC50 vs. Reference ([2]; sample O4-148721, 32I/46I/47V/50L, panel ID 127): 0.5 | Fold change in IC50 vs. Reference ([2]; sample O4-148725, 32I/46L/47V/84V, panel ID 53): 0.8 | Fold change in IC50 vs. Reference ([2]; sample O4-148745, 46I/50L/54V/82A, panel ID 99): 2.2 | Fold change in IC50 vs. Reference [2, 10]: 1.2 | Fold change in IC50 vs. Reference [2, 11]: 1.2 | EC50 [3]: 0.012 µM | SI (CC50/EC50) [3]: 1,583
